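Five compound concentrations were applied to cells in 96-well plates for 48 hours; endpoints were derived by simple linear interpolation of the resulting dose-response curve. The concentration for full growth arrest is given as TGI.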
Legend:
Experiment in all cases: NCI tumour cell line growth inhibition, 48 h
SR leukemia = test system: SR leukemia
MDA-MB-435 = test system: MDA-MB-435
T-47D breast = test system: T-47D breast
IGROV1 ovarian = test system: IGROV1 ovarian
HL-60(TB) leukemia = test system: HL-60(TB) leukemia
DU-145 prostate = test system: DU-145 prostate
OVCAR-3 ovarian = test system: OVCAR-3 ovarian
NCI-H460 lung = test system: NCI-H460 lung
SN12C renal = test system: SN12C renal
MOLT-4 leukemia = test system: MOLT-4 leukemia
SF-295 CNS = test system: SF-295 CNS
BT-549 breast = test system: BT-549 breast
A498 renal = test system: A498 renal
MDA-MB-231 breast = test system: MDA-MB-231 breast
SF-539 CNS = test system: SF-539 CNS
EKVX NSCLC = test system: EKVX NSCLC
OVCAR-8 ovarian = test system: OVCAR-8 ovarian
HOP-62 NSCLC = test system: HOP-62 NSCLC
RPMI-8226 leukemia = test system: RPMI-8226 leukemia
A549 NSCLC = test system: A549 NSCLC
SW-620 colon = test system: SW-620 colon
HCT-15 colon = test system: HCT-15 colon
UACC-62 melanoma = test system: UACC-62 melanoma
PC-3 prostate = test system: PC-3 prostate
SNB-75 CNS = test system: SNB-75 CNS
SK-MEL-5 melanoma = test system: SK-MEL-5 melanoma
SNB-19 CNS = test system: SNB-19 CNS
K-562 leukemia = test system: K-562 leukemia
MALME-3M melanoma = test system: MALME-3M melanoma
HCT-116 colon = test system: HCT-116 colon
M14 melanoma = test system: M14 melanoma
U251 CNS = test system: U251 CNS
CAKI-1 renal = test system: CAKI-1 renal
786-0 renal = test system: 786-0 renal
HT29 colon = test system: HT29 colon
SK-MEL-2 melanoma = test system: SK-MEL-2 melanoma
NCI-H522 lung = test system: NCI-H522 lung
UACC-257 melanoma = test system: UACC-257 melanoma
CCRF-CEM leukemia = test system: CCRF-CEM leukemia
LOX IMVI melanoma = test system: LOX IMVI melanoma
NCI/ADR-RES ovarian = test system: NCI/ADR-RES ovarian
MDA-N = test system: MDA-N
RXF 393 renal = test system: RXF 393 renal
ACHN renal = test system: ACHN renal
SF-268 CNS = test system: SF-268 CNS
HCC-2998 colon = test system: HCC-2998 colon
NCI-H23 lung = test system: NCI-H23 lung
HS 578T breast = test system: HS 578T breast
OVCAR-4 ovarian = test system: OVCAR-4 ovarian
SK-MEL-28 melanoma = test system: SK-MEL-28 melanoma
OVCAR-5 ovarian = test system: OVCAR-5 ovarian
KM12 colon = test system: KM12 colon
MCF7 breast = test system: MCF7 breast
NCI-H226 lung = test system: NCI-H226 lung
UO-31 renal = test system: UO-31 renal
COLO 205 colon = test system: COLO 205 colon
TK-10 renal = test system: TK-10 renal
SK-OV-3 ovarian = test system: SK-OV-3 ovarian

Measured: TGI

Nc1ccc(Cc2ccc(N=Cc3ccc(OCc4cccc(COc5ccc(C=Nc6ccc(Cc7ccc(N)cc7)cc6)cc5)n4)cc3)cc2)cc1
> 100 µM: SR leukemia | MDA-MB-435 | T-47D breast | IGROV1 ovarian | HL-60(TB) leukemia | DU-145 prostate | OVCAR-3 ovarian | NCI-H460 lung | SN12C renal | MOLT-4 leukemia | SF-295 CNS | BT-549 breast | A498 renal | MDA-MB-231 breast | EKVX NSCLC | OVCAR-8 ovarian | HOP-62 NSCLC | RPMI-8226 leukemia | A549 NSCLC | SW-620 colon | HCT-15 colon | UACC-62 melanoma | PC-3 prostate | SK-MEL-5 melanoma | SNB-19 CNS | K-562 leukemia | MALME-3M melanoma | HCT-116 colon | M14 melanoma | U251 CNS | CAKI-1 renal | 786-0 renal | HT29 colon | SK-MEL-2 melanoma | NCI-H522 lung | UACC-257 melanoma | CCRF-CEM leukemia | LOX IMVI melanoma | NCI/ADR-RES ovarian | MDA-N | ACHN renal | SF-268 CNS | HCC-2998 colon | NCI-H23 lung | HS 578T breast | OVCAR-4 ovarian | SK-MEL-28 melanoma | OVCAR-5 ovarian | KM12 colon | MCF7 breast | NCI-H226 lung | UO-31 renal | COLO 205 colon | TK-10 renal
39.7 µM: SNB-75 CNS
68 µM: RXF 393 renal
26.6 µM: SF-539 CNS

CCNCC(O)COc1ccc2c(c1)[n+]([O-])nc(N)[n+]2[O-] (stereo unspecified)
43.6 µM: NCI-H522 lung
27.3 µM: LOX IMVI melanoma
56 µM: MOLT-4 leukemia
> 100 µM: SR leukemia | MDA-MB-435 | T-47D breast | IGROV1 ovarian | HL-60(TB) leukemia | DU-145 prostate | OVCAR-3 ovarian | SN12C renal | SF-295 CNS | BT-549 breast | A498 renal | MDA-MB-231 breast | SF-539 CNS | EKVX NSCLC | OVCAR-8 ovarian | HOP-62 NSCLC | RPMI-8226 leukemia | A549 NSCLC | SW-620 colon | HCT-15 colon | PC-3 prostate | SNB-75 CNS | SK-MEL-5 melanoma | SNB-19 CNS | K-562 leukemia | HCT-116 colon | M14 melanoma | U251 CNS | CAKI-1 renal | 786-0 renal | HT29 colon | SK-MEL-2 melanoma | UACC-257 melanoma | CCRF-CEM leukemia | NCI/ADR-RES ovarian | MDA-N | ACHN renal | SF-268 CNS | NCI-H23 lung | HS 578T breast | OVCAR-4 ovarian | SK-MEL-28 melanoma | OVCAR-5 ovarian | KM12 colon | MCF7 breast | NCI-H226 lung | UO-31 renal | COLO 205 colon | TK-10 renal
69.8 µM: UACC-62 melanoma
82.1 µM: SK-OV-3 ovarian

CC(C)/C=N\N1C(N)=C(C#N)C(C#N)(C#N)C1C(C)C (stereo unspecified)
> 100 µM: T-47D breast | IGROV1 ovarian | DU-145 prostate | OVCAR-3 ovarian | SK-OV-3 ovarian | SN12C renal | MOLT-4 leukemia | SF-295 CNS | A498 renal | MDA-MB-231 breast | EKVX NSCLC | HOP-62 NSCLC | RPMI-8226 leukemia | A549 NSCLC | SW-620 colon | HCT-15 colon | PC-3 prostate | SNB-75 CNS | SK-MEL-5 melanoma | SNB-19 CNS | K-562 leukemia | MALME-3M melanoma | HCT-116 colon | M14 melanoma | U251 CNS | CAKI-1 renal | 786-0 renal | SK-MEL-2 melanoma | NCI-H522 lung | UACC-257 melanoma | LOX IMVI melanoma | RXF 393 renal | ACHN renal | SF-268 CNS | HCC-2998 colon | NCI-H23 lung | HS 578T breast | OVCAR-4 ovarian | SK-MEL-28 melanoma | OVCAR-5 ovarian | KM12 colon | MCF7 breast | NCI-H226 lung | UO-31 renal | COLO 205 colon | TK-10 renal
69.8 µM: MDA-N
91.7 µM: HL-60(TB) leukemia
92.3 µM: BT-549 breast
80 µM: HT29 colon
76.5 µM: UACC-62 melanoma
82.8 µM: NCI/ADR-RES ovarian
58.1 µM: OVCAR-8 ovarian
93.2 µM: CCRF-CEM leukemia
64.8 µM: SF-539 CNS
58.6 µM: MDA-MB-435
82.9 µM: SR leukemia

S=c1nc2sc3c(c2c(Nc2ccccc2)[nH]1)CCCC3
> 100 µM: SR leukemia | MDA-MB-435 | T-47D breast | IGROV1 ovarian | HL-60(TB) leukemia | DU-145 prostate | OVCAR-3 ovarian | NCI-H460 lung | SN12C renal | MOLT-4 leukemia | SF-295 CNS | BT-549 breast | A498 renal | MDA-MB-231 breast | EKVX NSCLC | OVCAR-8 ovarian | HOP-62 NSCLC | RPMI-8226 leukemia | SW-620 colon | HCT-15 colon | UACC-62 melanoma | PC-3 prostate | SNB-75 CNS | SK-MEL-5 melanoma | SNB-19 CNS | K-562 leukemia | MALME-3M melanoma | HCT-116 colon | U251 CNS | CAKI-1 renal | 786-0 renal | HT29 colon | SK-MEL-2 melanoma | NCI-H522 lung | UACC-257 melanoma | LOX IMVI melanoma | NCI/ADR-RES ovarian | MDA-N | RXF 393 renal | ACHN renal | SF-268 CNS | HCC-2998 colon | NCI-H23 lung | HS 578T breast | OVCAR-4 ovarian | SK-MEL-28 melanoma | OVCAR-5 ovarian | KM12 colon | MCF7 breast | NCI-H226 lung | UO-31 renal | COLO 205 colon | TK-10 renal
